{"source": "patent US10493108B2", "about": "“Non-invasive in vivo imaging and methods for treating diabetes” (Biocrine AB, priority 2007, dated 2019)", "key": {"islet cells (β-cells)": {"tested_on": "islet cells (β-cells)", "assay": "In vivo recording of [Ca2+]i changes in islets engrafted in the anterior chamber of the eye (Fluo-4/Fura-Red ratio)", "set-up": "species or system mouse", "details": "glibenclamide 1 mg/kg i.v.; remained high throughout the recording"}, "[1]": {"assay": "Blood glucose after intravenous glibenclamide", "format": "in vivo, mouse", "details": "glibenclamide intravenously (1 mg/kg, tail vein); data not shown"}, "[2]": {"tested_on": "β-cells of RIP-GFP islet grafts", "details": "mouse, in vivo"}, "[3]": {"assay": "Blood glucose after intravenous alloxan", "details": "alloxan 75 mg/kg i.v., after 24 h, n=6"}, "islet cells": {"tested_on": "islet cells", "details": "direct mechanism on islet cells; cited from earlier work"}}, "data": [{"compound": "COc1ccc(Cl)cc1C(=O)NCCc1ccc(S(=O)(=O)NC(=O)NC2CCCCC2)cc1", "note": "[glibenclamide]", "values": [{"measurement": "[Ca2+]i in islet cells (Fluo-4/Fura-Red fluorescence ratio)", "setting": "islet cells (β-cells)", "value": "prominent rises"}, {"measurement": "blood glucose levels", "setting": "[1]", "value": "decreased blood glucose levels"}]}, {"compound": "O=C1NC(=O)C(=O)C(=O)N1", "note": "[alloxan]", "values": [{"measurement": "GFP fluorescence of islet grafts", "setting": "[2]", "value": "substantial loss of GFP fluorescence"}, {"measurement": "annexin V-APC labelling of islet grafts", "setting": "[2]", "value": "strong labelling"}, {"measurement": "blood glucose concentration", "setting": "[3]", "value": "25.0 ± 1.3", "unit": "mmol/L"}]}, {"compound": "FC(F)OC(Cl)C(F)(F)F", "note": "(stereo not drawn) [Isoflurane]", "values": [{"measurement": "glucose stimulated insulin release", "setting": "islet cells", "value": "inhibit"}]}]}
